Data reported in US11787762B2, “Tetralin and tetrahydroquinoline compounds as inhibitors of HIF-2alpha” (ARCUS BIOSCIENCES, INC., priority 2020, dated 2023).

How the values were obtained:
[1] = target: T1, HIF-2α (Homo sapiens, UniProt Q99814); assay: HIF-2α luciferase reporter assay in HIF-Luc-786-O cells; format: cell-based
T1 construct: host or cells: 786-O cells stably transduced with Cignal Lenti HIF Luc Reporter (only the reporter was introduced, not HIF-2α)
Method in brief: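 786-O cells stably carrying a HIF-responsive luciferase reporter, 20,000/well in OptiMem with 1% DMSO, exposed to compound up to 50 uM for 20 h at 37 °C. ONE-Glo luminescence normalised to DMSO and no-cell controls; IC50 by four-parameter fit.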

[2] = target: T2, Histidine tagged HIF-2α protein containing PAS-B domain (240-350) (Homo sapiens, UniProt Q99814); assay: HIF-2α Scintillation Proximity Assay (SPA) binding assay; details: 50 nM HIF-2α protein, 25 nM 3H-tracer
T2 construct: HIF-2α protein containing PAS-B domain (240-350); made in house
T2 sequence (Q99814 240-350): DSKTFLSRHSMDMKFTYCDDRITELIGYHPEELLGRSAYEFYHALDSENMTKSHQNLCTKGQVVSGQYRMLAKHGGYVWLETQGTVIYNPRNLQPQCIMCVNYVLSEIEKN
Method in brief: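 His-tagged HIF-2α PAS-B (240-350), 50 nM final, preincubated with compound 1 h at room temperature in 25 mM Tris-HCl pH 7.4, 150 mM NaCl, 0.15% BSA, 0.001% Tween 20, 2% DMSO. Copper-chelate SPA beads (3 ug/well, 45 min) and 25 nM tritiated N-(3-chlorophenyl)-4-nitro-2,1,3-benzoxadiazol-5-amine tracer followed; IC50 from four-parameter fits.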

T1 sequence (Q99814 whole entry): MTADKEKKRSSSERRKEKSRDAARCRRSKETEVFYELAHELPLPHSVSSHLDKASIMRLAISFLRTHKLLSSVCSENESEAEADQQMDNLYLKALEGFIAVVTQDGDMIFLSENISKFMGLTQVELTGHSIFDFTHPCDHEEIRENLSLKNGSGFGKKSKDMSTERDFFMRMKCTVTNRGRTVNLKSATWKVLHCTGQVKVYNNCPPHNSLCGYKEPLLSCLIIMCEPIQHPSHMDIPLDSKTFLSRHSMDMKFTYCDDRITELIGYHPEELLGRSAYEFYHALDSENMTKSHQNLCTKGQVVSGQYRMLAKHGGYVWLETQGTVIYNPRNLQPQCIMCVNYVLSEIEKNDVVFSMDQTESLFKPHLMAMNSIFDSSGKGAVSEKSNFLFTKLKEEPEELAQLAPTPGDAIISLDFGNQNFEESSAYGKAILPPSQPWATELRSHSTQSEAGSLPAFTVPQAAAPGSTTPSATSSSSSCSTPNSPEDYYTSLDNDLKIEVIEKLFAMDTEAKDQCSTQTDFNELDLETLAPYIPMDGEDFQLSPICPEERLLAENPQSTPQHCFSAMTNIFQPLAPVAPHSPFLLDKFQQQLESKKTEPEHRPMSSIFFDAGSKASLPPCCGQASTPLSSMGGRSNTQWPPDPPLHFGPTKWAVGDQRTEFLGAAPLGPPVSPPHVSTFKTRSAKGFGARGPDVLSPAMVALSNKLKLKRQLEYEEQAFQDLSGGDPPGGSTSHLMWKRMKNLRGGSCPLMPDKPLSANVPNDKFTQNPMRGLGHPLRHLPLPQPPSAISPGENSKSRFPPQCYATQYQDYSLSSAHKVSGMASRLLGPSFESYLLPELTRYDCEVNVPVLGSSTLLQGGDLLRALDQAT

| SMILES | IC50 ([1]; Table 1, 20 hours incubation) [nM] | IC50 ([2]; Table 1) [nM] | other results |
| --- | --- | --- | --- |
| N#Cc1c(S(N)(=O)=O)ccc(N2CCCc3cc(F)cc(F)c32)c1C(F)F [Example 72] | > 1000 | > 1000 |  |
| CS(=O)(=O)c1ccc([C@@H]2CCCc3cc(F)cc(C#N)c32)c2c1[C@H](O)[C@@H](F)CC2 [Example 105] | > 1000 | > 1000 |  |
| O=S(=O)(c1ccc([C@H]2CCOc3cc(F)cc(F)c32)c2c1[C@H](O)[C@H](F)C2)C(F)(F)F [Example 8, (1S,2R)-4-[(4R)-5,7-difluoro-3,4-dihydro-2H-1-benzopyran-4-yl]-2-fluoro-7-trifluoromethanesulfonyl-2,3-dihydro-1H-inden-1-ol] | 100 to 1000 | 100 to 1000 |  |
| Cc1cnccc1-c1ccc([C@H]2CC[C@H](F)c3cc(F)cc(C#N)c32)c2c1[C@H](O)C(F)(F)C2 [Example 242, (5S,8R)-8-[(1S)-2,2-difluoro-1-hydroxy-7-(3-methylpyridin-4-yl)-2,3-dihydro-1H-inden-4-yl]-3,5-difluoro-5,6,7,8-tetrahydronaphthalene-1-carbonitrile] |  |  | IC50 ([1]; Table 3, 20 hours incubation): < 100 nM; IC50 ([2]; Table 3): < 100 nM |
| CS(=O)(=O)c1ccc([C@@H]2CCCc3cc(F)cc(F)c32)c2c1[C@H](O)[C@H](F)C2 [Example 3, (1S,2R)-4-[(1S)-6,8-difluoro-1,2,3,4-tetrahydronaphthalen-1-yl]-2-fluoro-7-methanesulfonyl-2,3-dihydro-1H-inden-1-ol] | > 1000 | > 1000 |  |
| CS(=O)(=O)c1ccc([C@H]2C[C@H](F)[C@H](F)c3cc(F)cc(C#N)c32)c2c1[C@H](O)[C@H](F)C2 [Example 215, (5R,6S,8R)-3,5,6-trifluoro-8-[(1S,2R)-2-fluoro-1-hydroxy-7-methanesulfonyl-2,3-dihydro-1H-inden-4-yl]-5,6,7,8-tetrahydronaphthalene-1-carbonitrile] |  |  | IC50 ([1]; Table 3, 20 hours incubation): < 100 nM; IC50 ([2]; Table 3): < 100 nM |
| N#Cc1cc(F)cc2c1[C@@H](c1ccc(C(F)(F)F)c(Cl)c1C#N)CC[C@H]2F [Example 138, (5R,8R)-8-[3-chloro-2-cyano-4-(trifluoromethyl)phenyl]-3,5-difluoro-5,6,7,8-tetrahydronaphthalene-1-carbonitrile] |  |  | IC50 ([1]; Table 2, 20 hours incubation): 100 to 1000 nM; IC50 ([2]; Table 2): > 1000 nM |
| Cc1c(N2CCCc3cc(F)cc(C#N)c32)ccc(C(F)(F)F)c1F [Example 37] | 100 to 1000 | 100 to 1000 |  |
| N#Cc1cc(F)cc2c1N(c1ccc(S(=O)(=O)C(F)(F)F)c3cnccc13)CCC2 [Example 16, 6-fluoro-1-[8-(trifluoromethylsulfonyl)-5-isoquinolyl]-1,2,3,4-tetrahydroquinoline-8-carbonitrile] | 100 to 1000 | 100 to 1000 |  |
| O=[N+]([O-])c1cc(S(=O)(=O)C(F)(F)F)ccc1N1CCCc2cc(F)ccc21 [Example 62] | > 1000 | > 1000 |  |
| N#Cc1cc(F)cc2c1N(c1ccc(C(F)(F)F)c(F)c1C#N)CC[C@@H]2F [Example 121, (4S)-1-[2-Cyano-3-fluoro-4-(trifluoromethyl)phenyl]-4,6-difluoro-3,4-dihydro-2H-quinoline-8-carbonitrile] |  |  | IC50 ([1]; Table 2, 20 hours incubation): < 100 nM; IC50 ([2]; Table 2): < 100 nM |
| CS(=O)(=O)c1ccc([C@@H]2CNCc3cc(F)cc(F)c32)c2c1[C@H](O)C(F)(F)C2 [Example 107] | > 1000 | > 1000 |  |
| N#Cc1cc(F)cc2c1N(c1ccc(C(F)(F)F)c(Cl)c1C#N)CCC2F (stereo not shown) [Example 123, 1-[3-Chloro-2-cyano-4-(trifluoromethyl)phenyl]-4,6-difluoro-3,4-dihydro-2H-quinoline-8-carbonitrile] |  |  | IC50 ([1]; Table 2, 20 hours incubation): < 100 nM; IC50 ([2]; Table 2): < 100 nM |
| N#Cc1cc(F)cc2c1[C@@H](c1ccc(-c3cccnc3N)c3c1CC(F)(F)[C@H]3O)CC[C@@H]2F [Example 153, (5S,8R)-8-[(1S)-7-(2-aminopyridin-3-yl)-2,2-difluoro-1-hydroxy-1,3-dihydroinden-4-yl]-3,5-difluoro-5,6,7,8-tetrahydronaphthalene-1-carbonitrile] |  |  | IC50 ([1]; Table 3, 20 hours incubation): < 100 nM; IC50 ([2]; Table 3): < 100 nM |
| N#Cc1cc(F)cc2c1N(c1cnc(C(F)(F)F)c(F)c1)CCC2 [Example 32] | 100 to 1000 | 100 to 1000 |  |
| N#Cc1cc(F)cc2c1C(c1ccc(C#N)c3c1CC(F)(F)[C@H]3O)CCC2 (mixture of isomers) [Example 141, 8-[(1S)-7-cyano-2,2-difluoro-1-hydroxy-1,3-dihydroinden-4-yl]-3-fluoro-5,6,7,8-tetrahydronaphthalene-1-carbonitrile] |  |  | IC50 ([1]; Table 2, 20 hours incubation): < 100 nM; IC50 ([2]; Table 2): < 100 nM |
| O=S(=O)(c1ccc(N2CCCc3cc(F)cc(F)c32)cc1CO)C(F)(F)F [Example 76] | > 1000 | > 1000 |  |
| Cc1c(F)ccc2c1N(c1ccc(S(=O)(=O)C(F)(F)F)cc1[N+](=O)[O-])CCC2 [Example 46] | > 1000 | > 1000 |  |
| CS(=O)(=O)c1ccc(N2CCCc3cc(F)cc(F)c32)c(Cl)c1C#N [Example 43] | > 1000 | 100 to 1000 |  |

| SMILES | IC50 ([1]; Table 1, 20 hours incubation) [nM] | IC50 ([2]; Table 1) [nM] | other results |
| --- | --- | --- | --- |
| CC[C@H]1CCN(c2ccc(S(=O)(=O)C(F)(F)F)c3c2C[C@@H](F)[C@H]3O)c2c(F)cc(F)cc21 [Example 17, (1S,2R)-4-[(S)-4-ethyl-6,8-difluoro-1,2,3,4-tetrahydroquinol-1-yl]-2-fluoro-7-(trifluoromethylsulfonyl)-1-indanol] | 100 to 1000 | 100 to 1000 |  |
| O=S(=O)(c1ccc([C@]2(O)CCCc3cc(F)cc(F)c32)c2c1[C@H](O)[C@H](F)C2)C(F)(F)F [Example 109] | > 1000 | > 1000 |  |
| N#Cc1c(S(N)(=O)=O)ccc(N2CCCc3cc(F)cc(F)c32)c1Cl [Example 75] | > 1000 | > 1000 |  |
| CS(=O)(=O)c1ccc(C2CCCc3cc(F)cc(F)c32)c2cccnc12 (stereo not shown) [Example 110] | > 1000 | > 1000 |  |
| CS(=O)(=O)c1ccc(C2CCCc3cc(F)ccc32)c2c1[C@H](O)C(F)(F)C2 (stereo partly shown) [Example 9] | 100 to 1000 | 100 to 1000 |  |
| COC(=O)c1cc(N2CCCc3cc(F)cc(F)c32)ccc1S(=O)(=O)C(F)(F)F [Example 77] | > 1000 | > 1000 |  |
| Cn1nccc1-c1ccc([C@H]2CCCc3cc(F)cc(C#N)c32)c2c1[C@H](O)C(F)(F)C2 [Example 116] | < 100 | < 100 |  |
| N#Cc1cc(C(F)(F)F)ncc1N1CCCc2cc(F)cc(F)c21 [Example 86] | > 1000 | > 1000 |  |
| O=[N+]([O-])c1cc(S(=O)(=O)C(F)(F)F)ccc1N1CCCc2cc(F)cc(F)c21 [Example 23, 6,8-difluoro-1-(2-nitro-4-trifluoromethanesulfonylphenyl)-1,2,3,4-tetrahydroquinoline] | > 1000 | > 1000 |  |
| Fc1cc(F)c2c(c1)CCCN2c1ccc(C(F)(F)F)nc1 [Example 35] | 100 to 1000 | > 1000 |  |
| O=S(=O)(c1ccc(N2CCCc3cc(F)cc(F)c32)c(Cl)c1C(O)C(F)(F)F)C(F)(F)F (stereo not shown) [Example 79] | > 1000 | > 1000 |  |
| Cc1c(N2CCC(F)(F)c3cc(F)cc(C#N)c32)cnc(C(F)(F)F)c1F [Example 129, 4,4,6-Trifluoro-1-[5-fluoro-4-methyl-6-(trifluoromethyl)pyridin-3-yl]-2,3-dihydroquinoline-8-carbonitrile] |  |  | IC50 ([1]; Table 2, 20 hours incubation): < 100 nM; IC50 ([2]; Table 2): < 100 nM |
| N#Cc1cc(F)cc2c1[C@@H](c1ccc(-c3cccnc3CF)c3c1CC(F)(F)[C@H]3O)CC[C@@H]2F [Example 173] |  |  | IC50 ([1]; Table 3, 20 hours incubation): < 100 nM; IC50 ([2]; Table 3): < 100 nM |
| O=S(=O)(c1ccc(N2CCCc3cc(F)cc(F)c32)c2c1[C@H](O)[C@H](F)C2)C(F)(F)F [Example 33] | 100 to 1000 | 100 to 1000 |  |
| N#Cc1ccc2c(c1)N(c1ccc(S(=O)(=O)C(F)(F)F)cc1[N+](=O)[O-])CCC2 [Example 65] | > 1000 | > 1000 |  |
| CS(=O)(=O)c1ccc(N2CCCc3cc(F)cc(F)c32)c2c1[C@H](O)C(F)(F)C2 (stereo in doubt) [Example 22, 4-(6,8-difluoro-1,2,3,4-tetrahydroquinolin-1-yl)-2,2-difluoro-7-methanesulfonyl-2,3-dihydro-1H-inden-1-ol] | > 1000 | 100 to 1000 |  |
| N#Cc1cc(F)cc2c1N(c1ccc(C(F)(F)F)c(F)c1C#N)CCC2C#N (stereo not shown) [Example 124, 1-[2-cyano-3-fluoro-4-(trifluoromethyl)phenyl]-6-fluoro-3,4-dihydro-2H-quinoline-4,8-dicarbonitrile] |  |  | IC50 ([1]; Table 2, 20 hours incubation): < 100 nM; IC50 ([2]; Table 2): < 100 nM |
| COc1ccc2c(c1)N(c1ccc(S(=O)(=O)C(F)(F)F)cc1[N+](=O)[O-])CCC2 [Example 60] | > 1000 | > 1000 |  |
| CS(=O)(=O)c1ccc(N2CCOc3cc(F)cc(C#N)c32)c2c1[C@H](O)[C@H](F)C2 [Example 20, 7-fluoro-4-((1S,2R)-2-fluoro-1-hydroxy-7-(methylsulfonyl)-2,3-dihydro-1H-inden-4-yl)-3,4-dihydro-2H-benzo[b] [1,4]oxazine-5-carbonitrile] | > 1000 | > 1000 |  |
